Data: PMC9320028, “A Series of New Pyrrole Alkaloids with ALR2 Inhibitory Activities from the Sponge Stylissa massa” (Marine Drugs, 2022)
pIC50, pKd: −log10 of the molar value.

Legend:
[1] = biological target: T1, ALR2 (AKR1B1, aldose reductase) (Homo sapiens, UniProt P15121); assay: ALR2 enzyme assay (in vitro); type: biochemical; settings: for inhibition at 20 µM: read-out: ALR2 inhibition rate
T1 construct: The plasmid (pET28b, Novagen) containing the open reading frame of the human ALR2 gene; hexa-histidine (cleaved yes); made in house; host or cells: E. coli BL21 gold (DE3)
Method: (§1) For the AKR1B1 enzyme assay and SPR measurements, the protein was expressed and purified using the protocol related to the one reported previously. The plasmid (pET28b, Novagen) containing the open reading frame of the human ALR2 gene was kindly provided by Atagenix, Wuhan, Hubei, China. The E. coli strain BL21 gold (DE3) (Novagen) was used to express the hexa-histidine tagged protein after induction with IPTG (Roth) for 16 h at 293 K. The pellet from a 4 L culture was resuspended in a buffer containing 20 mM Tris and 500 mM NaCl (pH 8.0) before being sonicated and centrifuged. A HiTrap chelating HP column (GE Healthcare) was loaded with the supernatant. After a short washing step with a low imidazole concentration, the fusion protein was eluted by applying a gradient of imidazole. The buffer was exchanged with 20mM Tris-HCl, 10 mM NaCl, 1mM EDTA, and the tag cleaved by thrombin (yuanyeBio-Technology Co. Ltd. Shanghai, China). A Hiprep DEAE FastFlow 16/10 column (GE Healthcare) was loaded with the remaining solution. A NaCl gradient was used to elute the ALR2 from the column.
In the first step of the polyol pathway, glucose reduction is accompanied by the conversation of NADPH to NADP, where only NADPH has an obvious spectral absorption around 340 nm and NADP has none. Thus, the decrease in OD340nm can represent the consumption of NADPH. Therefore, we detect the change of OD340nm before and after reaction to screen the effective ARIs or evaluate the AR activity; assays with epalrestat were used as positive controls. Briefly, the incubation system contains 10 µL ALR2 enzyme (20 µg/mL), 80 µL DL-glyceraldehyde (0.16 mmol/L) as the substrate, 1.0 mmol/L NADPH·4Na as a coenzyme, and 0.1 mol/L PBS (pH = 6.2). […] Then, the absorbance was measured using FlexStation 3 Reader (Molecular Devices, San Francisco, CA, USA) at 340 nm. The absorbance of wells treated with PBS and NADPH was considered as 100% (OD1) and the absorbance of wells treated with PBS and DL-glyceraldehyde was considered as 0% (OD2); the inhibitory rate was calculated by the formula ODcompounds − OD2/OD1 − OD2. […]

ALR2 = biological target: T2, ALR2 (Homo sapiens, UniProt P15121); assay: Surface plasmon resonance (SPR) binding assay, Biacore T200; settings: ALR2 immobilized on CM5 chip, PBS-P+ buffer, room temperature; read-out: KD value (binding between ALR2 and compound, SPR)
T2 construct: The plasmid (pET28b, Novagen) containing the open reading frame of the human ALR2 gene; hexa-histidine (cleaved yes); made in house; host or cells: E. coli BL21 gold (DE3)
Method: as §1
SPR binding analysis methodology can be used to study molecular interactions. Herein, SPR was applied to measure the interactions between compounds 13/14 and ALR2. Initially, ALR2 was prepared in 10 mM sodium acetate (pH 5.0) and then immobilized covalently by an amine-coupling reaction on a CM5 sensor chip. […]

Structure (SMILES) | inhibition at 20 µM [1] | pKd (ALR2) | pIC50 ([1]; recombinant ALR2, DL-glyceraldehyde substrate, NADPH, PBS pH 6.2, 10 min at 25 °C, OD340nm, read-out: IC50 of ALR2 inhibitory activity)
NC1=NC(=O)/C(=C2\CCNC(=O)c3[nH]ccc32)N1 [Compound 13] | > 50% | 4.90 | –
NC1=NC(=O)/C(=C2/CCNC(=O)c3[nH]ccc32)N1 [Compound 14] | > 50% | 5.16 | 4.88
